Results from BigSolDB 2.1.

C1=Cc2ccccc2Nc2ccccc21
solubility (mole fraction)
Details	278.15 K	283.15 K	288.15 K	293.15 K	298.15 K	303.15 K	308.15 K	313.15 K	318.15 K	323.15 K
in 1,4-dioxane	–	–	0.0312	0.0349	0.0392	0.0423	0.0481	0.052	0.058	0.0632
in DMAc	0.113	0.122	0.13	0.139	0.149	0.159	0.17	0.179	0.192	0.203
in DMF	0.109	0.116	0.122	0.129	0.136	0.144	0.153	0.161	0.169	0.178
in NMP	0.219	0.223	0.23	0.239	0.246	0.251	0.257	0.265	0.273	0.281
in acetone	0.0162	0.0178	0.0197	0.0219	0.0242	0.0268	0.0296	0.0327	0.0363	0.04
in acetonitrile	0.00245	0.00298	0.00345	0.00412	0.00489	0.00575	0.00676	0.00782	0.00933	0.0108
in ethyl acetate	0.01	0.0116	0.0133	0.015	0.0172	0.0193	0.0214	0.0243	0.0271	0.03
in isobutyl acetate	0.0105	0.0119	0.0132	0.0146	0.0161	0.0184	0.0206	0.023	0.0257	0.0285
in isopropyl acetate	0.00918	0.0104	0.0118	0.0133	0.0152	0.0168	0.0181	0.0202	0.0222	0.0249
in methyl acetate	0.00825	0.0092	0.0102	0.0118	0.0132	0.015	0.017	0.0192	0.0215	0.0239
in n-butyl acetate	0.0133	0.0152	0.0171	0.0189	0.0208	0.0236	0.0261	0.0289	0.0321	0.0362
in n-propyl acetate	0.0126	0.0143	0.0157	0.0175	0.0194	0.0215	0.0239	0.0267	0.0299	0.0331
